Test system: pSTAT3 expression in the H1975 xenograft
Test: pSTAT3 Rat IVTI (JAK1) Assay, H1975 xenograft
Type: in vivo
Settings: single oral dose, two hours, n=1
Procedure: pSTAT3 Rat IVTI (JAK1) Assay
The purpose of this assay is to measure the ability of test compounds to inhibit the pSTAT3 expression in the H1975 xenograft rat model. Grow H1975 cells according to ATCC specifications at the lowest possible passage number available. Culture and maintain cells in RPMI-1640 supplemented with 10% FBS and incubated at 37° C. in 5% CO2. Harvest cells by standard techniques and mix with BD Biosciences basement membrane matrix (MATRIGEL®) to achieve a 1:1 cell/matrix ratio yielding an inoculation volume of 0.2 mL cell/matrix suspension containing 2e6 cells. Keep cell suspensions on ice throughout the inoculation procedure and start implantations within one hour after cell culture harvest. […] Time course studies are a single dose administered at the TED70 determined from the dose response study. […]
Harvest and cut tumors to yield approximately 200-250 mm^3 size fragments and immediately drop into a 12×75 mm tube containing 1 mL of ice cold MSD Tris Lysis buffer (Meso Scale Discovery cat# R60TX-2) and 1×HALT (Thermo Scientific product #1861281). […] Cool plate to RT and measure absorbance at or near 562 nm on Molecular Devices Spectra Max. Protein concentrations for each sample are determined using SoftMax Pro 6.3 software program. After tumor samples are quantitated, freeze at −80° C. in the 96 well polypropylene plate and assay at a later date. […]

With `Cc1cc(Nc2cc(O[C@H]3CC[C@@H](NC[C@@H](O)C(F)(F)F)CC3)cc3c2ncn3C)nn1C` [Example 1, (2R)-3-{[cis-4-({4-[(1,5-Dimethyl-1H-pyrazol-3-yl)amino]-1-methyl-1H-benzimidazol-6-yl}oxy)cyclohexyl]amino}-1,1,1-trifluoropropan-2-ol] the “TEC50 (plasma concentration required to achieve 50% pSTAT3 inhibition)” value was 3.9 μM and the “TED50 (dose necessary to achieve 50% pSTAT3 inhibition)” value was 9 mg/kg.
